For experiment [1], the system named is Human gastric cancer cells (MKN-45). Nature of the experiment: Inhibitory activity against the proliferation of human gastric cancer cells (MKN-45). It counts as cell-based. The note with it: 72 h, read-out: IC50, concentration necessary to inhibit the cell proliferation by 50%, MKN-45, 1% FBS RPMI1640, 3 days, Cell Counting Kit-8. As to the method:
Pharmacological Test Example 2:Inhibitory Activity Against the Proliferation of Human Gastric Cancer Cells (MKN-45)
Human gastric cancer cells (MKN-45) were suspended in a 1% FBS-containing RPMI1640 medium (purchased from Sigma). The cell suspension (1×10^4 cells/ml) was added in a 96-well plate for cell culture (purchased from NUNC, Production No. 167008) at 0.1 ml/well, and then cultured in a 5% CO2 incubator (37° C.) overnight. After the culture, each well was supplied with 0.1 ml of a test substance diluted with a 1% FBS-containing RPMI1640 medium, followed by culturing in a 5% CO2 incubator (37° C.) for 3 days. After the culture, each well was supplied with 10 μl of Cell Counting Kit-8 (purchased from DOJINDO, Production No. 343-07623), followed by incubation in a 5% CO2 incubator (37° C.) for about 1.5 hrs. After the incubation, using the Plate Reader MTP-500 (Corona Electric), the absorbance of each well was determined at a measurement wavelength of 450 nm and a reference wavelength of 660 nm.
For orientation: Tetrazolium assays rely on reduction of a dye to a coloured formazan, in cell work by metabolically active cells.

Another experiment deals with HGFR autophosphorylation. The experiment is described as follows: Inhibitory activity against the HGFR autophosphorylation using ELISA. It counts as cell-based. The note with it: Homo sapiens, read-out: IC50, concentration necessary to inhibit HGFR autophosphorylation activity by 50%, MKN-45 cells, 1 hr treatment. As to the method:
Pharmacological Test Example 3:Inhibitory Activity Against the HGFR Autophosphorylation Using ELISA
1. Preparation of Cell Extract
Human gastric cancer cells (MKN-45) were suspended in a 1% FBS-containing RPMI1640 medium (purchased from Sigma). The cell suspension (1×10^5 cells/ml) was put in a 96-well plate for cell culture (purchased from NUNC, Production No. 167008) at 0.1 ml/well, and then cultured in a 5% CO2 incubator (37° C.) overnight. After the culture, from each well was removed the supernatant solution, followed by adding 0.05 ml of a 1% FBS-containing RPMI1640 medium. […]
Each well of the plate prepared in 2. was washed three times with 200 μl of PBS, and supplied with 150 μl of 3% BSA/PBS, followed by incubating at room temperature for 2 hrs. […] Each well was supplied with 70 μl of 1 M phosphoric acid, and using the Plate Reader MTP-500 (Corona Electric), the absorbance of the well was instantly determined at a measurement wavelength of 450 nm. While defining the absorbance of a well supplied with the cell extract having no test substance as 100% HGFR autophosphorylation activity, and the absorbance, of a well supplied with 50 μl of the lysis buffer as 0% HGFR autophosphorylation activity, the HGFR autophosphorylation activity (%) was calculated for each well. […]

`CN1CCN(C2CCN(C(=O)Nc3cc(Oc4ccc(NC(=O)C5(C(=O)Nc6ccc(F)cc6)CC5)c(F)c4)ccn3)CC2)CC1` [compound 1, N-(2-fluoro-4-{[2-({[4-(4-methylpiperazin-1-yl)piperidin-1-yl]carbonyl}amino)pyridin-4-yl]oxy}phenyl)-N′-(4-fluorophenyl)cyclopropane-1,1-dicarboxyamide]: the results for the IC50 (in experiment [1]; with HGFR autophosphorylation) were 17 nM and 16 nM, respectively.

Take `O=C(Nc1cc(Oc2cc(F)c(NC(=O)C3(C(=O)Nc4ccc(F)cc4)CC3)cc2F)ccn1)N1CC(O)C1` [compound 2, N-{2,5-difluoro-4-[(2-{[(3-hydroxyazetidin-1-yl)carbonyl]amino}pyridin-4-yl)oxy]phenyl}-N′-(4-fluorophenyl)cyclopropane-1,1-dicarboxyamide]: the IC50 is 5 nM in experiment [1] and 8.4 nM with HGFR autophosphorylation.

The record behind these values is patent US8377938B2, “Phenoxypyridine derivative salts and crystals thereof, and process for preparing the same” (Eisai R&D Management Co., Ltd., priority 2007, dated 2013).
